From patent US4485110A, “β-Lactam compounds, and use” (priority 1980, dated 1984) come the findings set out here.

Type in all cases: cell-based
One test has as its system E. cloacae N1. Kind of test: β-Lactamase inhibitory activity: antibiotic MIC alone or in combination. The settings on record: Enterobacter cloacae, N1, amoxycillin alone; read-out: Amoxycillin MIC.
A further test deals with C. freundii B10R+. The description is as above. Particulars: Citrobacter freundii, read-out: Amoxycillin MIC. An excerpt:
(§1) These tables show the MIC values of amoxycillin, cephaloridine, ticarcillin and apalcillin against a number of β-lactamase producing organisms.

Another test relates to C. freundii E8. The test is described as above.
Excerpt: as §1

Test [1] concerns E. coli 0111. Described as above.
Excerpt: as §1

Another test has as its system E. coli JT20R+. The description is as above. The settings on record: Escherichia coli, read-out: Amoxycillin MIC.
Excerpt: as §1

In another test the test system is E. coli JT39R+. Described as above.
Excerpt: as §1

The test system of the next test is E. coli JT410 C+. Described as above. Particulars: amoxycillin alone.
Excerpt: as §1

A further test concerns K. aerogenes Ba95R+. The description is as above. The settings on record: Klebsiella aerogenes, read-out: Amoxycillin MIC.
Excerpt: as §1

The test system of the next test is K. aerogenes I112. The test is described as above.
Excerpt: as §1

The test system of test [2] is P. aeruginosa A. Described as above. The settings on record: Pseudomonas aeruginosa; amoxycillin alone; read-out: Amoxycillin MIC.
Excerpt: as §1

The next test deals with P. aeruginosa Dalgleish. Described as above. The settings on record: Pseudomonas aeruginosa; amoxycillin alone; read-out: Amoxycillin MIC.
Excerpt: as §1

The next test has as its system P. mirabilis 889. The test is described as above. Particulars: Proteus mirabilis, 889, amoxycillin alone; read-out: Amoxycillin MIC.
Excerpt: as §1

For test [3], the system named is P. mirabilis 977. The test is described as above. The settings on record: Proteus mirabilis, 977, amoxycillin alone; read-out: Amoxycillin MIC.
Excerpt: as §1

The test system of a further test is P. morganii 1580. The test is described as above.
Excerpt: as §1

A further test deals with P. rettgeri WM16. The description is as above.
Excerpt: as §1

The next test has as its system P. vulgaris WO91. The description is as above.
Excerpt: as §1

The subject of test [4] is S. aureus Russell. The test is described as above.
Excerpt: as §1

For a further test, the system named is E. cloacae T 153. Described as above. Particulars: Enterobacter cloacae, T153; amoxycillin alone.
The next test deals with C. freundii E 8. In words: Antibacterial activity, broth MIC. Particulars: Citrobacter freundii, E8; compound alone, broth; read-out: Broth MIC. An excerpt:
(§2) The antibacterial activity of a number of compounds described in the foregoing Examples against a number of organisms is shown in Tables 1 and 10.

A further test relates to E. cloacae N 1. In words: Antibacterial activity, broth MIC. Particulars: Enterobacter cloacae, N1, compound alone.
Excerpt: as §2

For test [5], the system named is E. coli 0111. In words: Antibacterial activity, broth MIC. Particulars: Escherichia coli, compound alone.
Excerpt: as §2

The next test deals with E. coli JT 39 R^+. Kind of test: Antibacterial activity, broth MIC. The settings on record: Escherichia coli; compound alone, broth; read-out: Broth MIC.
Excerpt: as §2

Another test has as its system K. aerogenes A. In words: Antibacterial activity, broth MIC. The settings on record: Klebsiella aerogenes; compound alone, broth; read-out: Broth MIC.
Excerpt: as §2

In test [6] the test system is P. aeruginosa A. Kind of test: Antibacterial activity, broth MIC. Particulars: Pseudomonas aeruginosa, compound alone.
Excerpt: as §2

The test system of test [7] is P. mirabilis 977. Kind of test: Antibacterial activity, broth MIC. The settings on record: Proteus mirabilis, compound alone.
Excerpt: as §2

The test system of another test is P. morganii I 580. In words: Antibacterial activity, broth MIC. Particulars: Morganella morganii, I580, compound alone.
Excerpt: as §2

The subject of another test is P. rettgeri WM 16. In words: Antibacterial activity, broth MIC. Particulars: Providencia rettgeri, WM16, compound alone.
Excerpt: as §2

The next test relates to P. vulgaris WO 91. In words: Antibacterial activity, broth MIC. The settings on record: Proteus vulgaris, WO91, compound alone.
Excerpt: as §2

A further test concerns S. aureus 1517. In words: Antibacterial activity, broth MIC. The settings on record: Staphylococcus aureus, compound alone.
Excerpt: as §2

In the next test the test system is S. aureus Oxford. In words: Antibacterial activity, broth MIC. Particulars: Staphylococcus aureus, compound alone.
Excerpt: as §2

For test [8], the system named is S. aureus Russell. Kind of test: Antibacterial activity, broth MIC. The settings on record: Staphylococcus aureus, compound alone.
Excerpt: as §2

A further test concerns S. faecalis I. In words: Antibacterial activity, broth MIC. Particulars: Enterococcus faecalis; compound alone, broth; read-out: Broth MIC.
Excerpt: as §2

In another test the test system is S. marcescens US 20. Kind of test: Antibacterial activity, broth MIC. The settings on record: Serratia marcescens, US20; compound alone, broth; read-out: Broth MIC.
Excerpt: as §2

A further test deals with S. pneumoniae CN 33. In words: Antibacterial activity, broth MIC. The settings on record: Streptococcus pneumoniae, CN33, compound alone.
Excerpt: as §2

The next test has as its system S. pyogenes CN 10. Kind of test: Antibacterial activity, broth MIC. The settings on record: Streptococcus pyogenes, CN10, compound alone.
Excerpt: as §2

The test system of the next test is S. sonnei MB 11967. In words: Antibacterial activity, broth MIC. The settings on record: Shigella sonnei, MB11967, compound alone.
Excerpt: as §2

A further test has as its system S. typhimurium CT 10. In words: Antibacterial activity, broth MIC. Particulars: Salmonella enterica, compound alone.
Excerpt: as §2

The next test concerns S. aureus MB9. Kind of test: β-Lactamase inhibitory activity: antibiotic MIC alone or in combination. The settings on record: compound alone, 5.0 μg/ml.
Excerpt: as §1

In test [9] the test system is β-lactamase producing organisms. Kind of test: β-Lactamase inhibitory activity: synergistic properties. The settings on record: addition of the compound, Tables 2-5.
Excerpt: as §1

Several values for one entry are separate records, joined by “and”; a condition that tells them apart may be missing. Equal entries are not always repeated.

Turning to `CC1(C)S[C@@H]2[C@H](NC(=O)[C@H](N)c3ccc(O)cc3)C(=O)N2[C@H]1C(=O)O` [Amoxycillin], the MIC with E. cloacae N1 is 500 µg/mL; in the test with C. freundii B10R+, > 1000 µg/mL; in the test with C. freundii E8 (Citrobacter freundii, E8, amoxycillin alone, read-out: Amoxycillin MIC), 250 µg/mL; with E. coli 0111 [1] (Escherichia coli, 0111, amoxycillin alone, read-out: Amoxycillin MIC), 10 µg/mL; with E. coli JT20R+ it was > 1000 µg/mL; in the test on E. coli JT39R+ (Escherichia coli, read-out: Amoxycillin MIC, amoxycillin alone), > 1000 µg/mL. Further, the MIC was 250 µg/mL in the test on E. coli JT410 C+ (Escherichia coli, read-out: Amoxycillin MIC); > 1000 µg/mL in the test with K. aerogenes Ba95R+; 500 µg/mL with K. aerogenes I112 (Klebsiella aerogenes, I112, read-out: Amoxycillin MIC, amoxycillin alone); > 1000 µg/mL in the test on P. aeruginosa A [2]; > 1000 µg/mL in the test with P. aeruginosa Dalgleish; > 1000 µg/mL in the test with P. mirabilis 889. Further, the MIC in the test with P. mirabilis 977 [3] is 2.5 µg/mL; in the test on P. morganii 1580 (Morganella morganii, 1580, amoxycillin alone, read-out: Amoxycillin MIC), 1000 µg/mL; with P. rettgeri WM16 (Providencia rettgeri, WM16, amoxycillin alone, read-out: Amoxycillin MIC), 1000 µg/mL; with P. vulgaris WO91 (Proteus vulgaris, WO91, amoxycillin alone, read-out: Amoxycillin MIC), > 1000 µg/mL; in the test with S. aureus Russell [4] (Staphylococcus aureus, amoxycillin alone, read-out: Amoxycillin MIC), 100 µg/mL; with E. cloacae T 153, 1000 µg/mL. For the same molecule, the “Amoxycillin MIC” value with C. freundii E8 (amoxycillin alone) was 500 µg/mL; in the test on E. coli 0111 [1] (amoxycillin alone), 5 µg/mL and 5.0 µg/mL; in the test on E. coli JT39R+ (amoxycillin alone), 1000 µg/mL; in the test on E. coli JT410 C+ it was 500 µg/mL; with K. aerogenes I112 (amoxycillin alone), 250 µg/mL; in the test on P. morganii 1580 (amoxycillin alone) it was > 1000 µg/mL. Also, the “Amoxycillin MIC” value was 500 µg/mL in the test with P. rettgeri WM16 (amoxycillin alone) and 1000 µg/mL in the test with P. vulgaris WO91 (amoxycillin alone).

As for `C/C=C1/C(=O)N2C(C(=O)O)=C(SCC)SC12` (racemic) [Compound 27, (5RS)-Sodium(Z)-6-Ethylidene-2-ethylthiopenem-3-carboxylate], the MIC with C. freundii E 8 is 31 µg/mL; in the test on E. cloacae N 1, 31 µg/mL; in the test on E. coli 0111 [5] it was 31 µg/mL; with E. coli JT 39 R^+, 16 µg/mL; in the test on K. aerogenes A it was 16 µg/mL; against P. aeruginosa A [6] it was > 500 µg/mL. For the same molecule, the MIC came out at 31 µg/mL in the test on P. mirabilis 977 [7]; 31 µg/mL against P. morganii I 580; 62 µg/mL in the test with P. rettgeri WM 16; 31 µg/mL in the test on P. vulgaris WO 91; 16 µg/mL in the test with S. aureus 1517; 2 µg/mL in the test on S. aureus Oxford. The MIC against S. aureus Russell [8] was found to be 4 µg/mL; in the test with S. faecalis I, 250 µg/mL; in the test on S. marcescens US 20, 62 µg/mL; in the test on S. pneumoniae CN 33, 2 µg/mL; against S. pyogenes CN 10, 4 µg/mL; against S. sonnei MB 11967, 31 µg/mL. For the same molecule, in the test on S. typhimurium CT 10, it took 16 µg/mL to inhibit growth (MIC). For the same molecule, the “Inhibition by compound alone (footnote)” value with S. aureus MB9 was “inhibitory”; in the test with S. aureus Russell [4] (compound alone, 5.0 μg/ml), “inhibitory”. Also, the “Effect on MIC of amoxycillin, cephaloridine, ticarcillin and apalcillin” value in test [9] is on record as “marked decrease in the MIC”.
